For experiment [1], the target named is T1, human wild type STING (WT STING) (Homo sapiens, UniProt Q86WV6, H232R).
T1 construct: host or cells: 293T cells (ATCC CRL-3216), stably double transfected with pUNO1-hSTING-WT and pGL64.27-4×ISRE
Kind of experiment: 293T WT STING standard reporter assay. Type of experiment: cell-based. The conditions noted are these: 293T wtSTING-FL cells, no digitonin, 7 hours; ISRE firefly luciferase; read-out: 293T WT STING EC50. From the text: (§1) Two complementary oligonucleotides of the sequence […] […] […] […] […] The oligonucleotides were mixed in equal molar amounts, hybridized, and cleaved by restriction endonucleases HindIII (cat. #. R0104S, NEB, Ipswich, USA) and BglII (cat. #R0144S, NEB, Ipswich, USA). Ultimately, they were ligated into plasmid pGL4.27 (cat. #E6651, Promega, Madison, USA) linearized with the same enzymes. As result the sequence with four ISRE sites was placed upstream of the minimum promoter of firefly luciferase reporter gene.
(§2) After 5 minutes incubation at room temperature (RT), 250 μL of the mixture was added dropwise to the cells in one well. Cells were incubated 36 hours at 37° C. with 5% CO2, and then detached with 0.05% Trypsin and 0.22 g/L EDTA (both cat. #L0941, Biowest, Riverside, USA).
(§3) Transfected cells were seeded onto poly-D-lysine coated six well plates at density 50,000 cells per 1 cm^2 in DMEM medium with high glucose containing 10% heat inactivated FBS, 30 μg/mL blasticidin (cat. #ant-b1-05, InvivoGen, San Diego, USA), 0.06 mg/ml Penicillin G and 0.1 mg/ml Streptomycin Sulfate (both cat. #. L0018, Biowest, Riverside, USA). The medium was replenished every 3-4 days until visible colonies of cells resistant to blasticidin were formed.
(§4) Blasticidin resistant cells stably expressing WT STING were further transfected with pGL64.27-4×ISRE plasmid following the same procedure as described above. […] Homogeneous culture of stably double transfected cells was prepared by limiting dilution of cells in 96 well plates and wells with cells were selected that originated from a single cell.
The medium was removed the next day and three-fold serial dilutions of compounds in 100 μl medium were added to the cells. The plates were incubated for 7 hours at 37° C. with 5% CO2. Next 50 μl of the medium was removed from wells, and 30 μl of ONE-Glo™ Luciferase Assay System reagent (cat. #E6120, Promega, Madison, USA) was added to each well. Luminescence was read on Synergy H1 (Biotek, Winooski, USA).

For experiment [2], the target named is T1, human wild type STING (WT STING). Kind of experiment: Digitonin assay using 293T wtSTING-FL reporter cells. It counts as cell-based. The conditions noted are these: 293T wtSTING-FL cells, digitonin buffer 30 minutes, then 5 hours; ISRE firefly luciferase.
Description: as §1, §2, §3, §4
The medium was removed next day and three fold serial dilutions of compounds in Digitonin buffer containing 50 mmol·l^−1 HEPES (cat. #H3375, Sigma Aldrich, Czech Republic) pH 7.0, 100 mmol·l^−1 KCl, 3 mmol·l^−1 MgCl2, 0.1 mmol·l^−1 DTT (cat. #D0632, Sigma Aldrich, Czech Republic), 85 mmol·l^−1 Sucrose (cat. #S7903, Sigma Aldrich, Czech Republic), 0.2% BSA (cat. #A2153, Sigma Aldrich, Czech Republic), 1 mmol·l^−1 ATP (cat. #A1852, Sigma Aldrich, Czech Republic), 0.1 mmol·l^−1 GTP (cat. #G8877, Sigma Aldrich, Czech Republic), and 10 μg/mL Digitonin A (cat. #D141, Sigma Aldrich, Czech Republic) were added to the cells. The buffer was removed after 30 minutes incubation at 37° C. with 5% C02, the cells were washed once with 100 μl of cultivation medium, and 100 μl of medium was added to each well. The plates with cells were incubated for 5 hours at 37° C. with 5% CO2, 50 μl of the medium was removed and 30 μl of ONE-Glo™ Luciferase Assay System reagent (cat. #E6120, Promega, Madison, USA) was added to each well. Luminesce was read on Synergy H1 (Biotek, Winooski, USA).

In another experiment the target is T2, WT STING (Homo sapiens, UniProt Q86WV6, H232R).
T2 construct: 8xHis (N, cleaved yes); SUMO (N, cleaved yes); made in house
Kind of experiment: Differential Scanning Fluorimetry with WT STING. Type of experiment: binding. The conditions noted are these: thermal shift vs apoprotein; 150 μM CDN; truncated WT STING 0.1 mg/ml. How it is done:
(§5) Purified PCR products were cleaved with restriction enzymes BamHI (cat. #R0136S, NEB, Ipswich, USA) and NotI (cat. #R0189S, NEB, Ipswich, USA) and cloned into the pSUMO vector linearized with the identical enzymes.
(§6) DNase I (cat. #D5025, Sigma Aldrich, Czech Republic) and RNase A (cat. #R6513, Sigma Aldrich, Czech Republic) were added (final concentration 50 μg/ml) together with MgCl2 (final concentration 5 mmol·l^−1) to the homogenate and bacteria were lysed using French Press G-M™ High-Pressure Cell Press Homogenizer (1500 psi, 3 cycles). […] The resin was poured into a chromatography column, washed with 50 ml buffer A (50 mmol·l^−1 TrisCl (pH 8.0), 800 mmol·l^−1 NaCl, 3 mmol·l^−1 β-mercaptoethanol; 10% glycerol; 20 mmol·l^−1 imidazole) and 8-His-SUMO tagged STING proteins were eluted with 15 ml buffer A containing 300 mmol·l^−1 imidazole. […] Proteins were concentrated with Amicon® Ultra-15 10 K device (cat. #UFC901008, Merck Millipore, Billerica, USA) and flash frozen in liquid N2.
(§7) 20 μL solutions of the reaction mixtures were pipetted in triplicates into 96 well optical reaction plates and thermal denaturation of samples were performed on real time PCR cycler (LightCycler® 480 Instrument II—Roche, Basel, Switzerland). The first derivative of the thermal denaturation curves was performed to calculate denaturing temperatures of STING-CDN complexes and STING apoproteins. The thermal shift for each CDN was calculated by subtracting the average denaturing temperature of STING apoprotein from the average denaturing temperature of STING CDN complex.

For experiment [3], the system named is peripheral blood mononuclear cell (PBMC). Kind of experiment: Peripheral blood mononuclear cell assay (cytokine levels). It counts as cell-based. The conditions noted are these: 1 h with compound, wash, 15 hour incubation, average of one to four donors. How it is done: Selected compounds were tested in an in vitro peripheral blood mononuclear cell (PBMC) assay. […] Serially diluted tested compounds were added to wells in 50 μl of cultivation medium and cell were incubated with compounds for 1 h at 37° C. with 5% CO2. Plates with cells were then spun 500 g for 5 minutes and medium was removed. Cells were washed twice with the cell culture medium by the use of centrifugation and gently resuspended in 100 μl medium without compounds. After 15 hour incubation at 37° C. with 5% CO2, the cell culture medium was collected and the levels of interferon-alpha (INF-α), interferon-gamma (INF-γ) and tumor necrosis factor-alpha (TNF-α) were determined with ProcartaPlex Assays (ThermoFisher, Waltham, USA) and MAGPIX System (Merck KGaA, Darmstadt, Germany). […] Values reported are an average of runs from one to four donors.

For another experiment, the target named is T3, AQ STING (G230A-R293Q) (Homo sapiens, UniProt Q86WV6, G230A/H232R/R293Q).
T3 construct: 8xHis (N, cleaved yes); SUMO (N, cleaved yes); made in house
Kind of experiment: Differential Scanning Fluorimetry with AQ STING. Type of experiment: binding. The conditions noted are these: thermal shift vs apoprotein; 150 μM CDN; truncated AQ STING 0.1 mg/ml. The method, then:
as §5, §6, §7
In general terms: In DSF a fluorescence change marks the thermal transition of the protein.

Like-named read-outs stand apart in the source and are kept apart here.

T1 sequence (Q86WV6 whole entry H232R): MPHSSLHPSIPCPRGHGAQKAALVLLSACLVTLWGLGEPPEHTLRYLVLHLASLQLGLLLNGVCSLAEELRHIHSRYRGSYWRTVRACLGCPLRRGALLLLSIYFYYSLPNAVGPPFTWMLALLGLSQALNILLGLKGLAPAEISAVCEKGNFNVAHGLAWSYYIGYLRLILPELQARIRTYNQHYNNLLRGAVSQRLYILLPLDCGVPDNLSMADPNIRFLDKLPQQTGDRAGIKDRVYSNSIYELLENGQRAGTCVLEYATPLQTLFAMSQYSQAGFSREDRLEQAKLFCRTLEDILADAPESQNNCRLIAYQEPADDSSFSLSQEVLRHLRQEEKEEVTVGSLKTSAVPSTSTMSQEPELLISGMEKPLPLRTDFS
T3 sequence (Q86WV6 140-343 G230A/H232R/R293Q): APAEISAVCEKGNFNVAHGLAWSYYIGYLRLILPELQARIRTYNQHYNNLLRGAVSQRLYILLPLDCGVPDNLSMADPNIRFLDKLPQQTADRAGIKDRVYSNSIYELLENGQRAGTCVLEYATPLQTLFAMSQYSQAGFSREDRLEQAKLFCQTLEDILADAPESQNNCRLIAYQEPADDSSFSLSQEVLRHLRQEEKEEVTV
T2 sequence (Q86WV6 140-343 H232R): as the sequence (Q86WV6 140-343 G230A/H232R/R293Q) above, with A91G, Q154R counted along it

One may read the EC50 as the concentration needed to bring the measured effect to its halfway point. Take `Nc1ncnc2c1ncn2[C@@H]1O[C@@H]2COP(=O)(S)O[C@H]3[C@@H](F)[C@H](n4cnc5c(N)ncnc54)O[C@@H]3COP(=O)(O)CO[C@H]2[C@H]1F` (single isomer, unassigned) [Compound 11b]: the 50% effective concentration (EC50) in experiment [1] is 1.4 µM; in experiment [2], 0.05 µM; in experiment [3] (read-out: PBMC EC50 IFN-α), 123 µM; in experiment [3] (read-out: PBMC EC50 IFN-γ) it was over 125 µM; in experiment [3] (read-out: PBMC EC50 TNF-α) it was 118 µM. Also, on WT STING, the “DSF ΔTm WT STING” value was 13.6 °C. Moreover, the “DSF ΔTm AQ STING” value on AQ STING (G230A-R293Q) is 18.2 °C.
As to `Nc1ncnc2c1ncn2[C@@H]1O[C@@H]2COP(=O)(S)O[C@H]3[C@@H](F)[C@H](n4cnc5c(N)ncnc54)O[C@@H]3COP(=O)(S)CO[C@H]2[C@H]1F` (single isomer, unassigned) [Compound 14b], the EC50 turned out to be 0.2 µM in experiment [1]; 0.01 µM in experiment [2]; 46 µM in experiment [3] (read-out: PBMC EC50 IFN-α); 33 µM in experiment [3] (read-out: PBMC EC50 IFN-γ); 23 µM in experiment [3] (read-out: PBMC EC50 TNF-α). Moreover, the “DSF ΔTm WT STING” value at WT STING is 8.6 °C. Also, the “DSF ΔTm AQ STING” value at AQ STING (G230A-R293Q) was determined as 16.7 °C.
For `Nc1ncnc2c1ncn2[C@@H]1O[C@@H]2COP(=O)(O)O[C@H]3[C@@H](F)[C@H](n4cnc5c(N)ncnc54)O[C@@H]3COP(=O)(O)CO[C@H]2[C@H]1F` [Compound 21, (2R,3R,3aR,7aR,9R,10R,10aR,15aR)-2,9-bis(6-amino-9H-purin-9-yl)-3,10-difluoro-5,13-dihydroxydecahydro-2H-difuro[3,2-d:3′,2′-k][1,3,7,10]tetraoxa[2,8]diphosphacyclotridecine 5,13-dioxide], the EC50 is 3.1 µM in experiment [1]; 0.01 µM in experiment [2]; 100 µM in experiment [3] (read-out: PBMC EC50 IFN-α); 26 µM in experiment [3] (read-out: PBMC EC50 IFN-γ); 50 µM in experiment [3] (read-out: PBMC EC50 TNF-α). In addition, at WT STING, the “DSF ΔTm WT STING” value is 9.4 °C. Also, the “DSF ΔTm AQ STING” value on AQ STING (G230A-R293Q) stood at 16.1 °C.
Turning to `Nc1ncnc2c1ncn2[C@@H]1O[C@@H]2COP(=O)(S)O[C@H]3[C@@H](F)[C@H](n4cnc5c(N)ncnc54)O[C@@H]3COP(=O)(S)CO[C@H]2[C@H]1F` (single isomer, unassigned) [Compound 14c], the EC50 in experiment [1] turned out to be 0.3 µM; in experiment [2], 0.007 µM; in experiment [3] (read-out: PBMC EC50 IFN-α), 68 µM; in experiment [3] (read-out: PBMC EC50 IFN-γ) it was 44 µM; in experiment [3] (read-out: PBMC EC50 TNF-α) it was 51 µM. Also, on WT STING, the “DSF ΔTm WT STING” value was found to be 8.2 °C. Also, the “DSF ΔTm AQ STING” value on AQ STING (G230A-R293Q) was 17.6 °C.
On to `Nc1ncnc2c1ncn2[C@@H]1O[C@@H]2COP(=O)(S)O[C@H]3[C@@H](F)[C@H](n4cnc5c(N)ncnc54)O[C@@H]3COP(=O)(S)CO[C@H]2[C@H]1F` (single isomer, unassigned) [Compound 14a], for which the EC50 was 15 µM in experiment [1] and 0.06 µM in experiment [2]. Also, the “DSF ΔTm WT STING” value at WT STING was determined as 8.3 °C. Moreover, the “DSF ΔTm AQ STING” value at AQ STING (G230A-R293Q) was 16.1 °C.
Regarding `Nc1ncnc2c1ncn2[C@@H]1O[C@@H]2COP(=O)(S)O[C@H]3[C@@H](F)[C@H](n4cnc5c(N)ncnc54)O[C@@H]3COP(=O)(O)CO[C@H]2[C@H]1F` (single isomer, unassigned) [Compound 11a], the EC50 in experiment [1] turned out to be 4.5 µM; in experiment [2], 0.01 µM; in experiment [3] (read-out: PBMC EC50 IFN-α), 400 µM; in experiment [3] (read-out: PBMC EC50 IFN-γ), 130 µM; in experiment [3] (read-out: PBMC EC50 TNF-α) it was 90 µM. Further, the “DSF ΔTm WT STING” value on WT STING was 4.8 °C. Besides, on AQ STING (G230A-R293Q), the “DSF ΔTm AQ STING” value came out at 9.3 °C.
With `Nc1ncnc2c1ncn2[C@@H]1O[C@@H]2COP(=O)(O)O[C@H]3[C@@H](O)[C@H](n4cnc5c(N)ncnc54)O[C@@H]3COP(=O)(O)O[C@H]2[C@H]1O` [3′3′-c-di-AMP, reference compound], the EC50 in experiment [1] came out at 202 µM; in experiment [2], 0.3 µM. The “DSF ΔTm WT STING” value at WT STING worked out at 2.5 °C. In addition, on AQ STING (G230A-R293Q), the “DSF ΔTm AQ STING” value is 9.0 °C.

(Values after patent publication US20220143061A1, “3'3'-CYCLIC DINUCLEOTIDES AND PRODRUGS THEREOF” (INSTITUTE OF ORGANIC CHEMISTRY AND BIOCHEMISTRY ASCR, V.V.I., priority 2019, published 2022).)
